Activity calls are given as the source filed them. The rule behind the calls is not given here.
Experiments:
[1] = Antiproliferative activity against human CL1-5 cells assessed as reduction in cell viability incubated for 72 hrs by SRB assay; type: functional, cell-based; conditions: CL1-5, 72 h
[2] = system: NCI-H1975; assay: Induction of apoptosis in human NCI-H1975 cells xenografted in athymic nude BALB/c mouse at 1 or 4 mg/kg, ip administered for 4 weeks by hematoxylin and eosin staining based assay; type: functional, organism-based
[3] = system: NCI-H1975; assay: Induction of apoptosis in human NCI-H1975 cells assessed as increase in cleaved caspase 3 level at 140 nM incubated upto 72 hrs by immunoblotting analysis; type: functional, cell-based
[4] = system: NCI-H1975; assay: Induction of apoptosis in human NCI-H1975 cells assessed as increase in cleaved caspase 8 level at 140 nM incubated upto 72 hrs by immunoblotting analysis; type: functional, cell-based
[5] = biological target: T1, DNA replication licensing factor MCM6 (Homo sapiens) (UniProt Q14566); assay: Induction of ubiquitination of MCM6 in human PC9 cells incubated for 24 hrs by immunoblot analysis; type: cell-based; conditions: PC-9
T1 sequence (whole entry): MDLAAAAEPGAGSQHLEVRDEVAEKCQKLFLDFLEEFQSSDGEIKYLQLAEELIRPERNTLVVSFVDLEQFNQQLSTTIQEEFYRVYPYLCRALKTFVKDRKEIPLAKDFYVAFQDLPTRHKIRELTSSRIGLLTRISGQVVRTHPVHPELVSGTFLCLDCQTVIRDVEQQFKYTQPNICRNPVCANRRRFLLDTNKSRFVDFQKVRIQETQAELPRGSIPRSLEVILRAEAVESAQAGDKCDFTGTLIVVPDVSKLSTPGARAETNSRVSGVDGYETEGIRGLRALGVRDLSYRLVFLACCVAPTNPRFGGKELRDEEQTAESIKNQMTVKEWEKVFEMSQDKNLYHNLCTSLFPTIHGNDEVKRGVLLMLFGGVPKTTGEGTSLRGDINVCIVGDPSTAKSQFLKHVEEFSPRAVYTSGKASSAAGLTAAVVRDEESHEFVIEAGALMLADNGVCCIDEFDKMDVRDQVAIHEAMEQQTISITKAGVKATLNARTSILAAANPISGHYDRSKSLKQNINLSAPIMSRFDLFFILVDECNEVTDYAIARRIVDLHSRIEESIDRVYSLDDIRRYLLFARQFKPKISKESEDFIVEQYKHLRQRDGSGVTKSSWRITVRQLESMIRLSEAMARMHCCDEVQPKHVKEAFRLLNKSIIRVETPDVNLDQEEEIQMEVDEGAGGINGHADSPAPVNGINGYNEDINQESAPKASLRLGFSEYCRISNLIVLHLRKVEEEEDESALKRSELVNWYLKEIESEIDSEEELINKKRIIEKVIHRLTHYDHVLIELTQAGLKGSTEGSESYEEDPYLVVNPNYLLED

[6] = biological target: DNA replication licensing factor MCM2 (Homo sapiens) (UniProt P49736); assay: Induction of ubiquitination of MCM2 in human NCI-H1975 cells incubated for 72 hrs by immunoblot analysis (reference value: 1); type: cell-based
DNA replication licensing factor MCM2 (Homo sapiens), sequence (P49736 whole entry): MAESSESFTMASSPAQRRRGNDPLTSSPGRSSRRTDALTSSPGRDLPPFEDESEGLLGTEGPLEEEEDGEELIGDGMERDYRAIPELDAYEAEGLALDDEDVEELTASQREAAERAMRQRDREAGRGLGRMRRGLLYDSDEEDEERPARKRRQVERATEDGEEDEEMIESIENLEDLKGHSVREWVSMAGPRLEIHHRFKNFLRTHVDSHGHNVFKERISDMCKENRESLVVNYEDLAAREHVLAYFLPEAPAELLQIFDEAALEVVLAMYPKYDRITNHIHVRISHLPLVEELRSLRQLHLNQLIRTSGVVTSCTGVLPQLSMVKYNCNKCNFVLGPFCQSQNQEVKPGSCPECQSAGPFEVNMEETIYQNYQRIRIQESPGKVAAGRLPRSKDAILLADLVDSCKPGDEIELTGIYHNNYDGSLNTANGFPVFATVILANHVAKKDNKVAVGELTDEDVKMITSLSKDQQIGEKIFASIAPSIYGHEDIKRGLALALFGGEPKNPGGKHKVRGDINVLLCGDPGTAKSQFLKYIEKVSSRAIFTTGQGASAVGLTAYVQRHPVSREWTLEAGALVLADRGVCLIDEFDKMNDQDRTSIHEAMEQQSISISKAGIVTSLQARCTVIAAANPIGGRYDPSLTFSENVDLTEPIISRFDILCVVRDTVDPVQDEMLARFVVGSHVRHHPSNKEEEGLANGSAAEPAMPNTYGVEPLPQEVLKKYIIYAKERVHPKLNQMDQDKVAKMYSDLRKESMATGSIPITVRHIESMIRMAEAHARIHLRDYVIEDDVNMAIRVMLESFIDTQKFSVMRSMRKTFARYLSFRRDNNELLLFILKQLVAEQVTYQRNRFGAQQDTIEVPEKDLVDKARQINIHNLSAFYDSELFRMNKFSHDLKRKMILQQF

[7] = biological target: T1, DNA replication licensing factor MCM6 (Homo sapiens); assay: Induction of ubiquitination of MCM6 in human NCI-H1975 cells incubated for 24 hrs by immunoblot analysis (reference value: 1); type: cell-based
[8] = biological target: DNA replication licensing factor MCM7 (Homo sapiens) (UniProt P33993); assay: Induction of ubiquitination of MCM7 in human NCI-H1975 cells incubated for 24 hrs by immunoblot analysis (reference value: 1); type: cell-based
DNA replication licensing factor MCM7 (Homo sapiens), sequence (P33993 whole entry): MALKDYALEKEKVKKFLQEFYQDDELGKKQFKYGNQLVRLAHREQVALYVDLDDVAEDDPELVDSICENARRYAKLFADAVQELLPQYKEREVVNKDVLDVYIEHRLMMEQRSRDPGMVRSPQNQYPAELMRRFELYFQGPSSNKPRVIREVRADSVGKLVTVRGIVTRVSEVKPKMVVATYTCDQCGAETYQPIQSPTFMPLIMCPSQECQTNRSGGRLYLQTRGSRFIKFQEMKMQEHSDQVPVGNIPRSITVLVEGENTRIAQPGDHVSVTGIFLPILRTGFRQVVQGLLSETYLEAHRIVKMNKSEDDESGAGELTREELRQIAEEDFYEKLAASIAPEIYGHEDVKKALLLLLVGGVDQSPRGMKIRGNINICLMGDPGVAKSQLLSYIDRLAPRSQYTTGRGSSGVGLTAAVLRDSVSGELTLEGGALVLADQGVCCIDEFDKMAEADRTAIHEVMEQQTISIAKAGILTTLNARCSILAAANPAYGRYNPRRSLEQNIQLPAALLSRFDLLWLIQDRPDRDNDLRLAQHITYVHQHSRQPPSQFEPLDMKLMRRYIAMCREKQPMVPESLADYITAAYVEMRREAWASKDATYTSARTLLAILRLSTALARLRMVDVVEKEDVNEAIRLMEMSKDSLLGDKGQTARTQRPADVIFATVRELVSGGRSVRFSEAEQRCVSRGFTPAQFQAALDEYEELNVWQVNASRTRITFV

[9] = biological target: T2, DNA replication licensing factor MCM4 (Homo sapiens) (UniProt P33991); assay: Induction of ubiquitination of MCM4 in human NCI-H1975 cells incubated for 72 hrs by immunoblot analysis (reference value: 1); type: cell-based
T2 sequence (whole entry): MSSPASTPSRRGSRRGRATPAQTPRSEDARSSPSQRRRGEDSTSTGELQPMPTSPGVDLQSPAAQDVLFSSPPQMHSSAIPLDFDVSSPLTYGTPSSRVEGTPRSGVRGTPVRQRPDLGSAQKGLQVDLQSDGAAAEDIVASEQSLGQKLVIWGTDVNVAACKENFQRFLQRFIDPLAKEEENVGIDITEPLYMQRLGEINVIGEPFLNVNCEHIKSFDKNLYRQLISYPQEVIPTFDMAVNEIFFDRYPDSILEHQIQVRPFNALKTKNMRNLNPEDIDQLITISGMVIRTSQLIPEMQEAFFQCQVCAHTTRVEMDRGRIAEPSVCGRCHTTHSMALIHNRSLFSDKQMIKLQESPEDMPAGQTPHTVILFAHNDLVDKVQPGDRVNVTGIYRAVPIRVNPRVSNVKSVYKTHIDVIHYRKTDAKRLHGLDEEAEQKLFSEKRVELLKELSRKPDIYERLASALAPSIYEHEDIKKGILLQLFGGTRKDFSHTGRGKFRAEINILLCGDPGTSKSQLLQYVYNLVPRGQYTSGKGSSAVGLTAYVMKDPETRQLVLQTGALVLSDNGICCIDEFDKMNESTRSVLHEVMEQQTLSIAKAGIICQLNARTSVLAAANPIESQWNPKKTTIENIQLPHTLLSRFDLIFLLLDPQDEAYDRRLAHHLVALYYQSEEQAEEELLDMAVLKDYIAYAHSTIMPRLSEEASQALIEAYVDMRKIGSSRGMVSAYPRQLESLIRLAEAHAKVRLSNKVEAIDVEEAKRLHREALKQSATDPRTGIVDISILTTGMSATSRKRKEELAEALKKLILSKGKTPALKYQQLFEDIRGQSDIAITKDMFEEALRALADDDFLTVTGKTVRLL

[10] = biological target: DNA replication licensing factor MCM2 (Homo sapiens) (UniProt P49736); assay: Induction of ubiquitination of MCM2 in human NCI-H1975 cells incubated for 24 hrs by magnetic beads technique based immunoblot analysis; type: cell-based
[11] = system: NCI-H1975; assay: Antiproliferative activity against human NCI-H1975 cells harboring FLAG-tagged MCM2 Q341A mutant assessed as reduction in cell viability incubated for 72 hrs by SRB assay; type: functional, cell-based; conditions: NCI-H1975, 72 h

Activity [5]: Active | Activity [6]: 0.3 | Activity [7]: 0.5 | Activity [8]: 0.8 | Activity [9]: 0.7 | Activity [10]: Active | IC50 [11]: 150 nM
Compound: Cc1oc2c(c1C(=O)NCCCn1ccnc1)C(=O)c1ccccc1C2=O
IC50 [1]: < 100 nM | Activity [2]: Active | Activity [3]: Active | Activity [4]: Active
